Test [1] has as its target T1, human TGT (Homo sapiens, UniProt Q9BXR0). The note with it: queuine as substrate, ref Chen et al. (2011) Nuc. Acids Res. 39, 2834; cited from earlier work.
For test [2], the system named is E. coli TGT (C145V/T146V/V217G). The test is described as follows: Queuine incorporation by the E. coli TGT triple mutant. Conditions: queuine concentrations up to 50 μM (data not shown). In kind it is biochemical.
In test [3] the test system is Wild-type and Mutant E. coli TGTs. The test is described as follows: Pteridine inhibition of wild-type and mutant E. coli TGTs. The note with it: the mutant enzymes. In kind it is biochemical.
The next test concerns the target E. coli TGT C145V/T146V (Escherichia coli, UniProt P0A847, C145V/T146V). Nature of the test: Pteridine inhibition of guanine incorporation. Conditions: C145V/T146V mutant; vs guanine; 20 μM tRNA, pH 7.3. In kind it is biochemical.
The test system of test [4] is TGT from rabbit reticulocytes. The note with it: cited from earlier work.
Test [5] concerns the target E. coli TGT C145V/T146V/P147N/V217G (Escherichia coli, UniProt P0A847, C145V/P147N/T146V/V217G). The test is described as follows: Pteridine inhibition of guanine incorporation. In kind it is biochemical. The note with it: C145V/T146V/P147N/V217G (quadruple) mutant; vs guanine; 20 μM tRNA, pH 7.3.
A further test concerns the target E. coli TGT V217G (Escherichia coli, UniProt P0A847, V217G). The test is described as follows: Pteridine inhibition of guanine incorporation. In kind it is biochemical. The note with it: V217G mutant; vs guanine; 20 μM tRNA, pH 7.3.
The target of a further test is E. coli TGT Wild-Type (Escherichia coli, UniProt P0A847). Nature of the test: Pteridine inhibition of guanine incorporation. In kind it is biochemical.
Test [6] addresses E. coli TGT C145V/T146V/V217G (Escherichia coli, UniProt P0A847, C145V/T146V/V217G). Nature of the test: Pteridine inhibition of guanine incorporation. In kind it is biochemical. Conditions: C145V/T146V/V217G (triple) mutant; vs guanine; 20 μM tRNA, pH 7.3.
Test [7] deals with TGT from mouse fibroblasts. Conditions: cited from earlier work.
The target in test [8] is T1, human TGT. Nature of the test: Biopterin inhibition of human TGT. In kind it is biochemical.

Entries after “also recorded” stand apart in the source; their conditions may differ. Read-outs that look alike come from different tables or passages of the source.

T1 sequence (Q9BXR0 whole entry): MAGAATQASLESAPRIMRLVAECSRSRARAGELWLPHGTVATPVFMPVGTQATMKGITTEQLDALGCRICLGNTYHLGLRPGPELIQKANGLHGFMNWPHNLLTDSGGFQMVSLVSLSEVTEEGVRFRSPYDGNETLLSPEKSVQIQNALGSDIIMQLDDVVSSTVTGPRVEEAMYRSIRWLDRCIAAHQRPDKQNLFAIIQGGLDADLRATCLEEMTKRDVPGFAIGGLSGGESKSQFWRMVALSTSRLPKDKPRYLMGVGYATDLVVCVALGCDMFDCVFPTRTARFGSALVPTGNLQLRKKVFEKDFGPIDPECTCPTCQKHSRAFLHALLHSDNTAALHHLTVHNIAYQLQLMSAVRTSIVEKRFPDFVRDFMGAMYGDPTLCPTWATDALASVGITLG
T1 sequence (Q9H974 whole entry partner): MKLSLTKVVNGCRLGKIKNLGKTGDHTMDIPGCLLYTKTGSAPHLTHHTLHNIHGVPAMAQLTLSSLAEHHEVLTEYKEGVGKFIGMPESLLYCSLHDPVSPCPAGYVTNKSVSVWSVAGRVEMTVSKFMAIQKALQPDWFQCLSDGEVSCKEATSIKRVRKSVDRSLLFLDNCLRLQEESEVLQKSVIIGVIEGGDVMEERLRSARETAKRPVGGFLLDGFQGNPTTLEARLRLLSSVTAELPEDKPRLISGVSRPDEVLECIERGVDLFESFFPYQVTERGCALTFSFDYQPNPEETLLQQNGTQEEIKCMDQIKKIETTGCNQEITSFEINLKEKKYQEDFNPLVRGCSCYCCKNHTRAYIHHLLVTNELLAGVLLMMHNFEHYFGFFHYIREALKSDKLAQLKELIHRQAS

Consider `Nc1nc2[nH]cc(CN[C@H]3C=C[C@H](O)[C@@H]3O)c2c(=O)[nH]1` [Queuine, queuine], for which, on human TGT [1], the Km is 0.26 µM and the kcat was 8.2 (±0.2) 10^−3•s^−1. For the same molecule, the “incorporation of queuine as a substrate” value in test [2] is “does not recognize; also recorded: no incorporation”.

On to `Nc1nc2nccnc2c(=O)[nH]1` [Pterin, pterin], for which the “inhibition (in words)” value (in test [3]; on E. coli TGT Wild-Type (wild-type enzyme)) was “inhibited” throughout. Besides, the Ki is 2200 nM on E. coli TGT C145V/T146V; 37000 nM in [5]; 900 nM on E. coli TGT V217G; 420 nM at E. coli TGT Wild-Type (wild-type enzyme, vs guanine, 20 μM tRNA, pH 7.3); 1300 nM in test [6]. For the same molecule, the inhibition in [4] (0.48 μM pterin, rabbit reticulocyte TGT) is 44%.

For biopterin, the “inhibition (in words)” value in test [3] was “inhibited”. The inhibition constant (Ki) in test [7] was approximately 1000 nM. For the same molecule, the inhibition in test [4] (20 μM biopterin, rabbit reticulocyte enzyme) is on record as 39%. Besides, at E. coli TGT Wild-Type (biopterin concentrations up to 3 mM), the “inhibition of wild-type TGT” value was “no detectable inhibition”. Besides, at human TGT [8], the “Ki relative to the KM for queuine” value is listed as “ca. 30 fold”. In addition, the mode of inhibition result at human TGT [8] (with respect to queuine, Dixon and Cornish-Bowden plots) is “competitive inhibitor”.

The record behind these values is PMC3124622 (Biochemical and biophysical research communications, 2011).
